The values that follow come from patent publication US20240327415A1, “Multicomponent Complexes, Including Salts, Crystalline Forms, and Hydrates and Solvates of ENT1 Inhibitors” (iTeos Belgium SA, priority 2023, published 2024).

Format in all cases: physicochemical
A short description of data set [1]: TG/DSC and DSC thermal analysis. The settings on record: listed as Crystalline Form 8 Compound 1 mono(hydrogen sulfate). On the procedure:
In the examples below, to measure TGA/DSC, 2-10 mg of material was added into a pre-tared open aluminum pan and loaded into a TA Instruments Discovery SDT 650 Auto—Simultaneous DSC and held at room temperature. The sample was then heated at a rate of 10° C./min from 30° C. to 400° C. during which time the change in sample weight was recorded along with the heat flow response (DSC). Nitrogen was used as the sample purge gas, at a flow rate of 200 cm^3/min.
(§1) METHOD A: In Example 3, 1-5 mg of material was weighed into an aluminum DSC pan and sealed non-hermetically with a pierced aluminum lid. The sample pan was then loaded into a TA DSC2500 and held at 20° C. Once a stable heat-flow response was obtained, the sample and reference were heated to an upper temperature of 200° C. at a scan rate of 10° C./min and the resulting heat flow response monitored. The sample was held at the upper temperature for 3 minutes, before it was cooled at 10° C./min to 20° C., reheated to the upper temperature at 10° C./min, and then cooled again to 20° C. at the same rate. Nitrogen was used as the purge gas, at a flow rate of 50 cm^3/min.
as §1, with “B:” for “A:”, “Examples 2A, 14, and 17,” for “Example 3,”, “−80° C. and then” for “20° C.,”, “C./min.” for “C./min, and then cooled again to 20° C. at the same rate.”
METHOD C: In Example 5, 1-5 mg of a sample were weighed into an aluminum DSC pan and sealed non-hermetically with an aluminum lid. The sample pan was then loaded into a TA Instruments Discovery DSC 2500 differential scanning calorimeter equipped with a RC90 cooler. The sample and reference were heated to 190° C. at a scan rate of 10° C./min and the resulting heat flow response monitored. The sample was re-cooled to −80° C. and then reheated again to 190° C. all at 10° C./min. Nitrogen was used as the purge gas, at a flow rate of 50 cm^3/min.
2-10 mg of material was added into a pre-tared open aluminum pan and loaded into a TA Instruments Discovery SDT 650 Auto-Simultaneous DSC and held at room temperature. The sample was then heated at a rate of 10° C./min from 30° C. to 400° C. during which time the change in sample weight was recorded along with the heat flow response (DSC). Nitrogen was used as the sample purge gas, at a flow rate of 200 cm^3/min.
as §1, with “1-5” for “METHOD A: In Example 3, 1-5”, “min,” for “minutes,”

The nature of data set [2]: hydration mapping studies (slurries at different water activities, Example 17). The arrangement: key to XRPD, hydration studies - dried samples: A: amorphous; Crystalline Form 10 mono(hydrogen sulfate). On the procedure: Example 17—Hydration Mapping Studies-Crystalline Form 2 Compound 1 di(hydrogen sulfate) trihydrate, Crystalline Form 3 Compound 1 di(hydrogen sulfate), and Blend: The effects of different water activities on crystalline Form 2 Compound 1 di(hydrogen sulfate) trihydrate, crystalline Form 3 Compound 1 di(hydrogen sulfate) and a blend of the two were investigated. The “blend” was prepared by mixing crystalline Form 2 Compound 1 di(hydrogen sulfate) trihydrate and crystalline Form 3 Compound 1 di(hydrogen sulfate) in a 1:1 ratio. To the vials containing the required solid material, the appropriate solvent system was added to form slurries. The slurry samples were stirred at the required temperatures during and after the solvent addition. Where dissolution was observed post-solvent addition, additional solid was added to re-saturate the sample. After stirring at the required temperature for 48 hours, the residual solids left in the vials were analyzed by XRPD to assess the solid forms. The analyzed samples were then dried on the XRPD plate under reduced pressure at 40° C. for 24 hr. The dried samples were analyzed by XRPD.

The nature of data set [3]: salt screen, XRPD of damp, dried and 40° C./75% RH stored samples (Salt Preparation Methods 1 and 2). Details: key to XRPD Analysis Damp/Dry: A = amorphous; Evap. = isolated via evaporation. As to conditions: Benzoic acid, 1 equiv. As for the experimental part: (§2) Salt Preparation Method 1: Approximately 25 mg of Compound 1 (free base) was weighed out into 1.5 mL screw-cap vials and a stirrer bar was added. For solid counterions, the appropriate amount of acid (1.0 or 2.0 equiv.) was weighed into separate 1.5 mL screw-cap vials. 100 μL of the appropriate solvent system was added to both the Compound 1 and the solid counterions. Stock solutions of liquid counterions were prepared, such that 100 μL contained 1.0 or 2.0 equiv. of acid. See counterion and solvent lists in Table 60 and Table 61 respectively.
(§3) The samples were stirred at 40° C. for 5-10 min and then the acid solutions were added to Compound 1, rinsing out the transfer vial with a further 50 μL of solvent. […] Experiments were temperature cycled between 40° C. and 5° C. (1 h hold; 0.1° C./min ramp/cool) for ca. 24-68 h. Anti-solvent addition (ASA) was carried out to slurries at 5° C. then experiments were heated to 30° C. over 1 h. ASA was carried out at 30° C. or 40° C. where clear solutions or gums were observed.
(§4) Temperature cycling was then continued for ca. 16-69 h, followed by further ASA and temperature cycling if required. Material was isolated at 5° C. and analyzed damp by XRPD. All isolated material was dried under vacuum at ca. 40° C. for ca. 17-91 h then re-analyzed by XRPD. The XRPD plate was stored at 40° C./75% RH for 24-48 h and then samples re-analyzed. Solutions were stored uncapped at ambient temperature to evaporate. Any residual solids were analyzed by XRPD.
(§5) Salt Preparation Method 2: The general procedure adopted in preparing the potential salts is outlined below. A known mass of Compound 1 (free base) and a known volume of the appropriate solvent system were added to 20 mL scintillation vials. The required mol. equiv. of the appropriate counterions were added to the vials as solutions or slurries in the corresponding solvent system.
(§6) The experiments were stirred at 40° C. for ca. 1 h, and then temperature cycled between 40° C. and 5° C. with 0.1° C./min ramp and 1 h hold between each step. Anti-solvent additions and subsequent slurrying at 5° C. were employed in order to facilitate crystallization. […] The damp and dried solids were subsampled and analyzed by XRPD. Where applicable, the dried solids were stored at 40° C./75% RH for 24-48 h in order to improve the crystallinity and/or facilitate solid form conversion to the desired form.

Assay in data set [4]: as above
The settings on record: Benzoic acid, 1 equiv. Details: key: A = amorphous; PC = poorly crystalline; *= predominantly; 1 = Form 1 Compound 1 benzoate; 2 = Form 2 Compound 1 benzoate; 3 = Form 3 Compound 1 benzoate. As for the experimental part: as §2, §3, §4, §5, §6

Assay in data set [5]: as above
Details: key: A = amorphous; Evap. = isolated via evaporation. As to conditions: Benzoic acid, 1 equiv., AS Heptane. Put shortly:
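XRPD was recorded three times: on damp solids isolated at 5 °C, after ~17–91 h vacuum drying at ~40 °C, and after 24–48 h storage at 40 °C/75% RH. Solids came from stirring free base with 1.0 or 2.0 equiv. counterion at 40 °C, 40–5 °C temperature cycling, and anti-solvent addition.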

Marks after values point to notes of the source that are not given here.

In the case of `COc1cc(C(=O)O[C@@H]2CCCOc3cc(cc(OC)c3OC)C(=O)NCCCN3CCCN(CC2)CC3)cc(OC)c1OC.O=S(=O)(O)O`, the TGA/DSC mass loss in data set [1] worked out at 7.2% mass loss. Besides, the “TGA/DSC thermal event, onset” value in data set [1] (value before the brackets) turned out to be 144 °C. The “TGA/DSC thermal event, peak” value in data set [1] (value in brackets) was 158 °C.

For `COc1cc(C(=O)O[C@@H]2CCCOc3cc(cc(OC)c3OC)C(=O)NCCCN3CCCN(CC2)CC3)cc(OC)c1OC.O=S(=O)(O)O.O=S(=O)(O)O` [blended material], in data set [2] (50° C., Acetonitrile:Water, aw 0.9, dried 40° C. reduced pressure 24 hr), the “XRPD, hydration studies - dried samples” value was “M10”. Also, the “solid form by XRPD after slurrying” value in data set [2] (acetonitrile:water solvent systems with aw≤0.5, 48 hours) is “some crystalline Form 3 Compound 1 di(hydrogen sulfate) was retained”; in data set [2] (acetonitrile:water systems with aw>0.5, 48 hours), “Crystalline Form 2 Compound 1 di(hydrogen sulfate) trihydrate was observed”; in data set [2] (all the 2-propanol:water solvent systems, 48 hours), “Crystalline Form 2 Compound 1 di(hydrogen sulfate) trihydrate was also observed”.

For the compound `O=C(O)c1ccccc1` [Benzoic acid, 1 equiv.], in data set [3] (Acetonitrile, AS BME, (evap.)), the “XRPD Analysis Damp/Dry” value is given as “A (evap.)”. The “XRPD Analysis 40° C. 75% RH” value was 2 + 3 in data set [3] (Ethanol, AS Heptane); 2 + 3 in data set [3] (IPA:H2O (75:25% v/v), AS tBME); 1 + 3 in data set [3] (MEK, AS Heptane); 1 in data set [4] (Ethyl acetate, AS Heptane); 3 in data set [4] (THF, AS Heptane). Further, the “XRPD Analysis Damp” value in data set [3] (Ethanol, AS Heptane) is recorded as 2*; in data set [3] (MEK, AS Heptane), 1*; in data set [3] (THF, AS Heptane), 1 + 2; in data set [4] (Ethyl acetate, AS Heptane), 1; in data set [4] (IPA:H2O (75:25% v/v), AS tBME) it was 2. Further, the “XRPD Analysis Dry” value is listed as 1, PC in data set [3] (MEK, AS Heptane); 1 in data set [4] (Ethyl acetate, AS Heptane); 2 in data set [4] (IPA:H2O (75:25% v/v), AS tBME); “A” in data set [5] (Ethanol); “A” in data set [5] (THF).
